Legend:
mEAG1 channel = target: T1, mEAG1 channel (Mus musculus, UniProt Q60603); assay: Inside-out patch-clamp of wild-type mEAG1 channels expressed in Xenopus oocytes; assay type: cell-based; settings: 50 µM
T1 sequence (Q60603 1-989): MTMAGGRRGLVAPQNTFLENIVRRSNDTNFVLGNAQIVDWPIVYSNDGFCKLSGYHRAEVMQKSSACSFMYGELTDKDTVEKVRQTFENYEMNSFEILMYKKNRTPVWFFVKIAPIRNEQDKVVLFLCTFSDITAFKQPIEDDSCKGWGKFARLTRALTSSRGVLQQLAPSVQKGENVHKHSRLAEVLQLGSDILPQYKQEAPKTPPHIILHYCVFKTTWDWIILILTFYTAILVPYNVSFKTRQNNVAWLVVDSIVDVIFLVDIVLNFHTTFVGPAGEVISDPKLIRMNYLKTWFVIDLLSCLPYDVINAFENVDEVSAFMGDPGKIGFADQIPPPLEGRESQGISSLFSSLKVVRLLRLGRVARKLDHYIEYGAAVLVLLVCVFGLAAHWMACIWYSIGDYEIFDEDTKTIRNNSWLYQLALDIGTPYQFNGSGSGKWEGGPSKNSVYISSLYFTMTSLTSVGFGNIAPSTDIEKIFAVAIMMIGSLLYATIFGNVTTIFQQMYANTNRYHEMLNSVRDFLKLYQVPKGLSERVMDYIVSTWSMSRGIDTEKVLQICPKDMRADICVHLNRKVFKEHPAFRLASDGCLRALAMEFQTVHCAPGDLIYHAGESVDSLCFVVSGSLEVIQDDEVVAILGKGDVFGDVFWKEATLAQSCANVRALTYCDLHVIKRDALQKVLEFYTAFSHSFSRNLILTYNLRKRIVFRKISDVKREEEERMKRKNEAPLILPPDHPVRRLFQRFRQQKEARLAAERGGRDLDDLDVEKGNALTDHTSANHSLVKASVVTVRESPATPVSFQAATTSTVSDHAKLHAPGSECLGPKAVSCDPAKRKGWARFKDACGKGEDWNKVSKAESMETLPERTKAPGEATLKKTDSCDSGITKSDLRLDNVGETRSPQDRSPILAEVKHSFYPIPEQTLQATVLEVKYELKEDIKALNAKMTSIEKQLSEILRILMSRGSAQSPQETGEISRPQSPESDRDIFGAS

[1] = target: T2, purified C-linker/CNBHD of mEAG1 channels (Mus musculus, UniProt Q60603); assay: Tryptophan-to-flavonoid FRET binding assay; settings: 100 µM flavonoid; 4 µM protein
T2 sequence (Q60603 505-702): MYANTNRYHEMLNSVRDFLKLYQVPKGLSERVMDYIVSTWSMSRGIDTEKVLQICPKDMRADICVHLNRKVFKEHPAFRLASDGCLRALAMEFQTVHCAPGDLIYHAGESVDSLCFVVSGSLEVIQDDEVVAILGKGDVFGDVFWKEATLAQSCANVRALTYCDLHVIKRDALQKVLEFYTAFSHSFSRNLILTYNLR

[2] = Solubility limit in recording / aqueous solutions; assay type: physicochemical; settings: aqueous solutions

Row | SMILES | effect on steady-state or kinetic properties of mEAG1 channel gating (mEAG1 channel) | decrease of peak fluorescence intensity of the C-linker/CNBHD at 341 nm [1] [%] | solubility [2] [µM]
1 | Oc1cc(O)c2c(c1)O[C@H](c1ccc(O)c(O)c1)[C@@H](O)C2 [Catechin, (2R,3S)-2-(3,4-dihydroxyphenyl)-3,4-dihydro-2H-chromene-3,5,7-triol] | did not alter | – | –
2 | COc1ccc(-c2cc(=O)c3c(O)cc(O)cc3o2)cc1 [Acacetin, 5,7-dihydroxy-2-(4-methoxyphenyl)chromen-4-one] | did not alter | – | –
3 | C[C@]12CC[C@@H]3c4ccc(O)cc4CC[C@H]3[C@@H]1CC[C@@H]2O [Estradiol, (17β)-estra-1,3,5(10)-triene-3,17-diol] | did not shift the voltage dependence or slow the deactivation | – | –
4 | O=c1c(O)c(-c2ccc(O)c(O)c2)oc2cc(O)cc(O)c12 [Quercetin, 2-(3,4-dihydroxyphenyl)-3,5,7-trihydroxy-4H-chromen-4-one] | – | 51 | ≤ 150

Reference: publication PMC3581696 (The Journal of General Physiology, 2013)
